Consider three compounds from patent US10081655B2, “Cationic antibacterial composition” (priority 2011, dated 2018).

Values after ≈ are worked out from the molar mass of the structure shown.

Data set [1] deals with E. coli. The data set is described as follows: MBC by plating. Type of data set: cell-based. How it is done: (§1) All cationic antibacterial compounds and control (vancomycin) were assayed in a micro-dilution broth format. Stock solutions were made by serially diluting the compounds using autoclaved Millipore water or broth media. The antibacterial activity of the compounds was determined against Methicillin sensitive S. aureus (MSSA), Methicillin resistant S. aureus (MRSA), vancomycin sensitive Enterococcus faecium (VSE), vancomycin resistant Enterococcus faecium (VRE), and E. coli. Bacteria, to be tested, were grown for about 10 h in the suitable media, MSSA and MRSA were grown in Yeast-dextrose broth (about 1 g of beef extract, about 2 g of yeast extract, about 5 g of peptone and about 5 g of NaCl in about 1000 mL of sterile distilled water (pH-7)). For solid media, about 5% agar was used along with above mentioned composition. E. coli was cultured in Luria Bertani broth (about 10 g of tryptone, about 5 g of yeast extract, and about 10 g of NaCl in 1000 mL of sterile distilled water, pH −7). VSE and VRE were cultured in Brain Heart Infusion broth (Himedia). The bacterial samples were freeze dried and stored at about −80° C. About 5 μl of these stocks were added to about 3 ml of the nutrient broth and the culture was grown for about 6 h at about 37° C. prior to the experiments. This 6 h grown culture gives about 10^9 cfu/mL for MSSA and MRSA, while it was about 10^8 cfu/mL for E. coli, 10^9 cfu/mL for both VSE and VRE and this was determined by spread plating method. The 6 h grown culture was diluted to give effective cell concentration of about 10^5 cfu/mL which was then used for determining MIC.
(§2) Compounds were serially diluted, in sterile water (2 fold dilution is employed) in a way that the working concentration was about 10 μM for MSSA MRSA, and VSE while for VRE and E. coli it was about 100 μM. About 50 μL of these serial dilutions were added to the wells of 96 well plate followed by the addition of about 150 μL of bacterial solution. The plates were then incubated at about 37° C., 150 rpm in the incubator and O.D at 600 nm was recorded at an interval of about 10 h and about 24 h using TECAN (Infinite series, M200 pro) Plate Reader. Each concentration had triplicate values and the whole experiment was done at least twice and the MIC value was determined by taking the average of triplicate O. D. values for each concentration and plotting it against concentration. The data was then subjected to sigmoidal fitting. From the curve the MIC value was determined, as the point in the curve where the O.D. was similar to that of control having no bacteria.
(§3) MBC values were determined by plating about 50 μl of the solution and later counting the colonies after their development.

For data set [2], the system named is MSSA. The experiment in a line: MBC by plating. Type of data set: cell-based, S. aureus. The conditions noted are these: against MSSA. How it is done:
as §1, §2, §3

The test system of data set [3] is Methicillin resistant S. aureus (ATCC 33591). The data set is described as follows: microbe, parasite or virus in culture. In kind it is cell-based. The procedure:
For solid media, about 5% agar was used along with above mentioned composition. […] VSE and VRE were cultured in Brain Heart Infusion broth (Himedia). […] The 6 h grown culture was diluted to give effective cell concentration of about 10^5 cfu/mL which was then used for determining MIC.
About 50 μL of these serial dilutions were added to the wells of 96 well plate followed by the addition of about 150 μL of bacterial solution. […] Each concentration had triplicate values and the whole experiment was done at least twice and the MIC value was determined by taking the average of triplicate O. D. values for each concentration and plotting it against concentration. The data was then subjected to sigmoidal fitting.

In data set [4] the test system is Vancomycin restant S. aureus (Clinical isolate, MMC-20, VanA & VanB). The data set is described as follows: MIC, broth dilution method in Mueller-Hinton broth. The conditions noted are these: VRSA. In kind it is cell-based. The procedure:
For vancomycin resistant staphylococcus aureus (VRSA; clinical isolate MMC-20), the MIC of compounds was determined by broth dilution method using Mueller-Hinton broth (MHB), as recommended by the National Committee for Clinical Laboratory Standards. About 5×10^4 bacterial cells in MHB culture were treated with different concentrations of compounds, and shaken for 16 h at 37° C. The minimum concentration at which there was no visible turbidity was taken as the MIC of that compound.
A general note: Broth dilution looks for growth in wells or tubes with falling amounts of substance.

For data set [5], the system named is Vancomycin resistant E. faecium (VanA, ATCC 51559). The experiment in a line: MIC, micro-dilution broth. Type of data set: cell-based. The procedure: as §1, §2
In data set [6] the test system is E. coli. The experiment in a line: MIC, micro-dilution broth. In kind it is cell-based. The procedure: as §1, §2
Data set [7] relates to Vancomycin sensitive E. faecium (ATCC 19634). The data set is described as follows: MIC, micro-dilution broth. In kind it is cell-based. The procedure: as §1, §2
For data set [8], the system named is Methicillin sensitive S. aureus (MTCC 737). The experiment in a line: MIC, micro-dilution broth. In kind it is cell-based. How it is done: as §1, §2
In data set [9] the test system is MSSA. The data set is described as follows: Cytoplasmic membrane depolarization assay (diSC3(5)). Type of data set: cell-based, S. aureus. The conditions noted are these: concentration as high as 40 μM. The procedure: Midlog phase bacterial cells were harvested, washed with about 5 mM HEPES and about 5 mM glucose and resuspended in about 5 mM glucose, about 5 mM HEPES buffer and about 100 mM KCl solution in 1:1:1 ratio (about 10^8 cfu/ml). Measurements were made in a cuvette containing about 2 ml of bacterial suspension and about 2 μM diSC3(5). The fluorescence of the dye was monitored for about 10 min (MSSA) to about 20 min (E. coli) at R.T. spectrofluorometer at excitation wavelength of about 622 nm and emission wavelength of about 670 nm. Dye uptake, and resultant self quenching, was modulated by the membrane potential. After reaching the maximum uptake of the dye by bacteria, which was indicated by a minimum in dye fluorescence, (after about 10 min for S. aureus and about 20 min for E. coli) compounds (4 and 7) and control were added to the cells, and the decrease in potential was monitored by the increase in fluorescence for further about 10 min.

Another data set in a line: Cytotoxicity assay (MTT). Type of data set: cell-based. To be noted: human, HeLa cells (cervical cancer cells), about 24 h. The procedure: Cytotoxity of compounds 4 and 7 was determined against HeLa cell line following well known MTT assay. Cells were grown in DMEM at about 37° C. in a humidified-air atmosphere (about 5% CO2/95% air) in DMEM complete medium, supplemented with about 10% heat inactivated Fetal Bovine Serum and about 100 units/mL penicillin G, about 100 µg/mL streptomycin. Cells were seeded into 96 well plate and kept under the above mentioned conditions till they attained about 80% confluency. Compounds were serially diluted, in sterile water (2 fold dilution is employed) in a way that the working concentration was 100 μM. 50 μL of these dilutions were added to the cells and the volume was made up to 200 μL using DMEM medium. Cells were kept under observation for about 24 h. Later the medium was removed, cells were washed thoroughly with PBS and about 100 μL of MTT solution (about 5 mg/mL) was added to the wells. After about 3 h the MTT was removed, cells were lysed using DMSO and the plate was read at about 570 nm. One containing no compound (untreated cell) and other with about 10 vol % Triton-X 100 solution were also used. Percentage of cell survival was calculated using the formula: (Atreated cells−Atriton-X cells)/(Auntreated cell−Atriton-X cells)×100
A plot of % of survival against concentration of compound was plotted using Origin Pro software.

Data set [10] has as its system MRSA. The data set is described as follows: MBC by plating. In kind it is cell-based, S. aureus. To be noted: Staphylococcus aureus; against MRSA. How it is done: as §1, §2, §3
The subject of data set [11] is MRSA. The experiment in a line: Time-kill assay. In kind it is cell-based, S. aureus. The conditions noted are these: 1×MIC, 6×MIC, 12×MIC, 0-3 h. How it is done:
The bactericidal activity was assessed by the kinetics or the rate at which it affects the killing action of the compound. Briefly MRSA grown in Yeast-Dextrose broth. […] Bacterial suspension containing specified concentrations of the compound along with negative control (which contains only 0.9% Saline) was incubated at 37° C. with shaking. Aliquots (20 μl) were removed from the cultures at 0, 1, 2 and 3 h and were serially diluted 10-fold in 0.9% saline and plated onto sterile Yeast-Dextrose agar medium. The number of viable cells was determined by plating the 10-fold serial dilution of each sample onto Yeast-dextrose agar medium. Plates were then incubated for 24 h at 37° C., CFU was counted and the total bacterial log10 CFU/ml was determined.

The test system of data set [12] is Human Red Blood Cells (RBC). The data set is described as follows: Hemolytic assay. Type of data set: cell-based. The conditions noted are these: Erythrocyte, 1 h, about one hour at about 37° C., read-out: EC50 (hemolysis). How it is done:
Fresh human blood was collected under aseptic conditions in heparinised vacutainers. vancomycin derivatives are serially diluted, in sterile water (about 2 fold dilution is employed) in a way that the working concentration is about 100 μM. Heparinised blood was centrifuged down at about 3500 rpm for about 5 min in order to separate Red Blood Cells and blood plasma. RBC's are then washed couple of times with PBS pH-7.4 and suspended in PBS such that the final concentration of RBC was about 5 vol %. About 150 μL of this is mixed with about 50 μL of serially diluted compound in 96 well plate. The plate was then incubated at about 37° C. for about one hour. Later, the plate was centrifuged down at about 3500 rpm for about 5 min. The lysed RBC releases haemoglobin which was present in the supernatant. The supernatant thus was pipetted out into another fresh 96 well plate and the absorbance was measured at about 540 nm.
Percentage of hemolysis was determined as (A−A0)/(Atotal−A0)×100, where A is the absorbance of the test well, A0 the absorbance of solution without compound, and Atotal the absorbance of 100% hemolysis wells (with Triton X-100), all at 540 nm.

Broadly, the MBC is the smallest concentration meeting the test's criterion for killing. Higher therefore signals weaker bactericidal potency. For `CN[C@H](CC(C)C)C(=O)N[C@H]1C(=O)N[C@@H](CC(N)=O)C(=O)N[C@H]2C(=O)N[C@H]3C(=O)N[C@H](C(=O)N[C@H](C(=O)NCCCN(C)C)c4cc(O)cc(O)c4-c4cc3ccc4O)[C@H](O)c3ccc(c(Cl)c3)Oc3cc2cc(c3O[C@@H]2O[C@H](CO)[C@@H](O)[C@H](O)[C@H]2O[C@H]2C[C@](C)(N)[C@H](O)[C@H](C)O2)Oc2ccc(cc2Cl)[C@H]1O` [Compound 1], the MBC against E. coli [1] (against E. coli) was 50 µM (≈ 76.7 µg/mL); against MSSA [2] it was 1.25 µM (≈ 1.92 µg/mL). Also, the MIC was 0.61 µM (≈ 0.935 µg/mL) in [3] (MRSA, ATCC 33591); 0.53 µM (≈ 0.813 µg/mL) in [4] (clinical isolate MMC-20); greater than 100 µM in [5] (VRE, E. faecium VanA ATCC 51559); 50 µM (≈ 76.7 µg/mL) against E. coli [6] (against E. coli); 0.63 µM (≈ 0.966 µg/mL) in data set [7] (VSE, E. faecium ATCC 19634); 0.62 µM (≈ 0.951 µg/mL) in [8] (MSSA, S. aureus MTCC 737).
`CCCCCCCCCCCCCC[N+](C)(C)CCCNC(C)=O` [Compound 14, N′-Acetyl N-tetradecyl N,N dimethyl 1,3 propanediamine] had a minimal bactericidal concentration (MBC) against E. coli [1] (against E. coli) greater than 100 µM. In the data set on E. coli [6] (against E. coli), the MIC is greater than 100 µM.
For orientation: EC50 means the concentration at which the effect is half-maximal. As for `CN[C@H](CC(C)C)C(=O)N[C@H]1C(=O)N[C@@H](CC(N)=O)C(=O)N[C@H]2C(=O)N[C@H]3C(=O)N[C@H](C(=O)N[C@H](C(=O)O)c4cc(O)cc(O)c4-c4cc3ccc4O)[C@H](O)c3ccc(c(Cl)c3)Oc3cc2cc(c3O[C@@H]2O[C@H](CO)[C@@H](O)[C@H](O)[C@H]2O[C@H]2C[C@](C)(N)[C@H](O)[C@H](C)O2)Oc2ccc(cc2Cl)[C@H]1O` [Vancomycin], the membrane depolarization result with MSSA [9] is listed as “remained ineffective”. Besides, the EC50 at 24 h in the data set “Cytotoxicity assay (MTT)” was greater than 100 µM. For the same compound, the MBC against E. coli [1] (Escherichia coli) was greater than 100 µM; in the data set on E. coli [1] (against E. coli, listed as Control) it was greater than 100 µM; against MSSA [2] (Staphylococcus aureus, MSSA), roughly 2.5 µM (≈ 3.62 µg/mL); in the data set on MSSA [2] (listed as Control), 2.5 µM (≈ 3.62 µg/mL); in the data set with MRSA [10], 2.5 µM (≈ 3.62 µg/mL). Besides, the MIC in [3] (Staphylococcus aureus, ATCC 33591 / MRSA) is 0.63 µM (≈ 0.913 µg/mL); in [4] (Staphylococcus aureus), greater than 86 µM; in data set [5] (Enterococcus faecium, ATCC 51559 / VRE), greater than 100 µM; against E. coli [6] (Escherichia coli), 80 to 100 µM (≈ 116 to 145 µg/mL); in data set [7] (Enterococcus faecium, ATCC19634), 0.6 µM (≈ 0.87 µg/mL); in data set [8] (Staphylococcus aureus, MSSA / MTCC737), 0.63 µM (≈ 0.913 µg/mL). In addition, in the data set on MRSA [11], the “killing kinetics (in words)” value is “relatively slow killing or bacteriostatic effect”. The EC50 in data set [12] is greater than 100 µM.
